In one test the test system is Aedes aegypti. The test can be described thus: In vitro Warm Body assay, mosquitoes landing on treated warm body. In kind it is in vivo. Particulars: for pest or weed control at 0.04 % / pest or weed control at 0.0016 %: Aedes aegypti, read-out: decrease of landings. The protocol: The arthropod controlling effect according to the present invention is determined on mosquitoes using an adapted Warm Body assay as defined in Kröber T, Kessler S, Frei J, Bourquin M, Guerin P M. An in vitro assay for testing mosquito controlling compounds employing a warm body and carbon dioxide as a behavioral activator. J Am Mosq Control Assoc. 2010; 26:381-386.
The controlling effect according to the present invention is determined by testing the Warm Body assay against the yellow fever mosquito, Aedes aegypti Rockefeller strain. […] Observations of controlling efficacy were made on host-seeking females of uniform age, 5 to 10 days old selected as mentioned in the publication mentioned hereinabove. Tested hungry females had access to 10% sugar solution but were not blood-fed.
The published protocol has been adapted in not manually counting the landing mosquitoes but automatically using an automatic counting software, the switch from Anopheles gambiae to A. aegypti led to a decrease of mosquitoes' number placed in the tested cage due to the size difference (i.e. 30 mosquitoes instead of 50) and to an increase of lighting as A. aegypti is a diurnal mosquitoes (i.e. 150 lux instead of 4 lux).
The controlling effect according to the present invention is determined by testing the Warm Body assay against the yellow fever mosquito, A. aegypti Rockefeller strain. […] Observations of controlling efficacy were made on host-seeking females of uniform age, 5 to 10 days old selected as mentioned in the publication mentioned hereinabove. Tested hungry females had access to 10% sugar solution but were not blood-fed.
The controlling effect according to the present invention was assessed using an adapted Warm Body assay as defined in Kröber T, Kessler S, Frei J, Bourquin M, Guerin P M. An in vitro assay for testing mosquito controlling compounds employing a warm body and carbon dioxide as a behavioral activator. J Am Mosq Control Assoc. 2010; 26:381-386.
The published protocol has been adapted in not manually counting the landing mosquitoes but automatically using an automatic counting software, the switch from Anopheles gambiae to Aedes aegypti led to a decrease of mosquitoes' number placed in the tested cage due to the size difference (i.e. 30 mosquitoes instead of 50) and to an increase of lighting as Aedes aegypti is a diurnal mosquitoes (i.e. 150 lux instead of 4 lux).
In this in-vitro assay the number of A. aegypti landing on a warm body treated with the tested stimuli was measured in order to assess the repellency effect. Three replicates were carried on the three different doses: 0.0016%, 0.04% and 1% in ethanol, using 25 A. aegypti 10-12 days old females per cage.
In this in-vitro assay, the number of Aedes aegypti landing on a warm body treated with the tested stimuli was measured in order to assess the repellency effect. Three replicates were carried on the three different doses: 0.0016%, 0.04% and 1% in ethanol.
In this in-vitro assay, the number of Aedes aegypti landing on a warm body treated with the tested stimuli was measured in order to assess the repellency effect. One replicate was carried at different doses ranging from 0.0016% up to 1% in ethanol.

In the next test the test system is Ixodes ricinus. In words: In vitro Warm Plate Assay for ticks. Type of test: in vivo. Particulars: for concentration at which the level of 85% of ticks affected is reached: Tables 10 and 12. The procedure:
Repellent efficacy of the different compounds was assessed against the sheep tick, Ixodes ricinus. I. ricinus is one of the recommended model organisms mentioned by the Guidance on the European Biological Products Regulation [Vol II, Efficacy-Assessment & Evaluation (Parts B+C), v. 3.0, April 2018]. Observations of repellent efficacy were made on last stage nymphs.
The repellent efficacy was assessed using the protocol of the in-vitro Warm Plate Assay as defined in Kröber T, Bourquin M, Guerin P M. A standardized in vivo and in vitro test method for evaluating tick repellents. Pesticide Biochemistry and Physiology. 2013; 107 (2): 160-168.].
The mean±SD number of ticks Ixodes ricinus walking down (affected), falling (affected) or walking-up (non affected) from the warm plate treated with ethanol, N,N-diethyl-3-methylbenzamide, (2,5-dimethyl-2,3-dihydro-1H-inden-2yl)methanol (Ingredient 2) or (2,4,6-trimethyl-2,3-dihydro-1H-inden-2-yl)methanol (Ingredient 1) diluted in ethanol at 0.4 mg/ml and 10 mg/mL was assessed on n groups of 12 ticks (n=2-5).
In this in-vitro assay, the percentage of ticks Ixodes ricinus affected by the stimulus loaded on the warm plate was measured in order to assess the repellency effect. Twelve ticks were assessed per concentrations that goes from 0.0016% up to 1% in ethanol.
Using the same in-vitro setup, the effect on ticks behavior (n≥12) of different stimuli diluted in ethanol at 20% (w/w) was assessed overtime.

Where [1] appears, read: Ixodes ricinus, 0.04% (Table 10), read-out: percentage of ticks affected on the Warm Plate.
The mark [2] stands for this setting: Ixodes ricinus, 0.2% (Table 10), read-out: percentage of ticks affected on the Warm Plate.
Setting [3] is: Ixodes ricinus, 1% (Table 10), read-out: percentage of ticks affected on the Warm Plate.
[4] abbreviates: Ixodes ricinus, 0.0016% (Table 11), read-out: percentage of ticks affected on the Warm Plate.
The mark [5] stands for this setting: Ixodes ricinus, 0.04% (Table 11), read-out: percentage of ticks affected on the Warm Plate.
Setting [6] is: Ixodes ricinus, 1% (Table 11), read-out: percentage of ticks affected on the Warm Plate.

Structures can show the parent of a compound that is named as a salt. Where two headings read alike, the source gives them in different places.

Take `Cc1ccc2c(c1)CCC(C)(CO)C2` (racemic) [(+−)-(2,6-dimethyl-1,2,3,4-tetrahydro-2-naphthalenyl)methanol]: the “number of mosquitoes landed on the Warm Body” value (“number of mosquitoes landed” below) worked out at 57 in the test on Aedes aegypti (0.0016% in ethanol (Table 6)), 65 in the test on Aedes aegypti (0.04% in ethanol (Table 6)) and 3 in the test on Aedes aegypti (1% in ethanol (Table 6)). Besides, the pest or weed control at 0.04 % in the test with Ixodes ricinus (setting [1]) amounted to 8%. For the same molecule, in the test with Ixodes ricinus (setting [2]), the pest or weed control at 0.2 % is 71%. Further, the pest or weed control at 1 % in the test on Ixodes ricinus (setting [3]) is 100%.
Take `Cc1ccc2c(c1)CC(CO)C2` (racemic) [(+−)-(5-methyl-2,3-dihydro-1H-inden-2-yl)methanol]: the “number of mosquitoes landed” value in the test with Aedes aegypti (0.0016% in ethanol (Table 6)) is listed as 65; with Aedes aegypti (0.04% in ethanol (Table 6)) it was 7; with Aedes aegypti (1% in ethanol (Table 6)) it was 5. The pest or weed control at 0.04 % with Ixodes ricinus (setting [1]) amounted to 0%. In addition, the pest or weed control at 0.2 % in the test with Ixodes ricinus (setting [2]) came out at 100%. In the test with Ixodes ricinus (setting [3]), the pest or weed control at 1 % was determined as 100%. Moreover, the “concentration at which the level of 85% of ticks affected is reached” value in the test on Ixodes ricinus came out at 0.2%.
As to `Cc1cc(C)c2c(c1)CC(C)(CO)C2` (racemic) [ingredient #1, (2,4,6-trimethyl-2,3-dihydro-1H-inden-2-yl)methanol], the “mosquitoes landing on the warm body” value in the test on Aedes aegypti (1% in ethanol (FIG. 8)) is “no mosquito landed”. For the same molecule, the pest or weed control at 0.04 % is 88% in the test on Aedes aegypti; 57% with Ixodes ricinus (setting [5]); 57% in the test with Ixodes ricinus (Ixodes ricinus, 0.04% in ethanol (Table 12), read-out: percentage of ticks affected on the Warm Plate). The “MEAN % affected (ticks)” value is 67% in the test with Ixodes ricinus (0.4 mg/mL in ethanol (Table 5)) and 100% with Ixodes ricinus (10 mg/mL in ethanol (Table 5)). Moreover, the “ticks non-affected over 12 (in words)” value in the test with Ixodes ricinus (0.04%) is “three and five ticks over 12 being non-affected”. For the same molecule, the “ticks affected / not affected over 12 (in words)” value in the test with Ixodes ricinus (1%) is reported as “all the ticks being affected”. The pest or weed control at 0.0016 % turned out to be 20% in the test with Ixodes ricinus (setting [4]) and 20% in the test on Ixodes ricinus (Ixodes ricinus, 0.0016% in ethanol (Table 12), read-out: percentage of ticks affected on the Warm Plate). For the same molecule, in the test on Ixodes ricinus (Ixodes ricinus, 0.0053% in ethanol (Table 12), read-out: percentage of ticks affected on the Warm Plate), the pest or weed control at 0.0053 % was determined as 7%. Also, the pest or weed control at 0.008 % in the test on Ixodes ricinus (Ixodes ricinus, 0.008% in ethanol (Table 12), read-out: percentage of ticks affected on the Warm Plate) was 8%. Further, in the test with Ixodes ricinus (Ixodes ricinus, 0.0119% in ethanol (Table 12), read-out: percentage of ticks affected on the Warm Plate), the pest or weed control at 0.0119 % is 23%. The pest or weed control at 0.0178 % in the test with Ixodes ricinus (Ixodes ricinus, 0.0178% in ethanol (Table 12), read-out: percentage of ticks affected on the Warm Plate) turned out to be 0%. Further, in the test with Ixodes ricinus (Ixodes ricinus, 0.0267% in ethanol (Table 12), read-out: percentage of ticks affected on the Warm Plate), the pest or weed control at 0.0267 % stood at 7%. Besides, the pest or weed control at 0.0598 % in the test on Ixodes ricinus (Ixodes ricinus, 0.0598% in ethanol (Table 12), read-out: percentage of ticks affected on the Warm Plate) came out at 13%. Further, the pest or weed control at 0.089 % in the test with Ixodes ricinus (Ixodes ricinus, 0.089% in ethanol (Table 12), read-out: percentage of ticks affected on the Warm Plate) worked out at 41%. Also, the pest or weed control at 0.2 % in the test with Ixodes ricinus (Ixodes ricinus, 0.2% in ethanol (Table 12), read-out: percentage of ticks affected on the Warm Plate) came to 85%. Besides, in the test on Ixodes ricinus (Ixodes ricinus, 0.447% in ethanol (Table 12), read-out: percentage of ticks affected on the Warm Plate), the pest or weed control at 0.447 % came to 92%. Further, the pest or weed control at 1 % is 96% in the test with Ixodes ricinus (setting [6]) and 96% in the test with Ixodes ricinus (Ixodes ricinus, 1% in ethanol (Table 12), read-out: percentage of ticks affected on the Warm Plate).
For the molecule `Cc1ccc2c(c1)CC(C)(C(C)O)C2` (stereo not shown) [1-(2,5-dimethyl-2-indanyl)-1-ethanol], the values for the pest or weed control at 0.04 % in the test on Aedes aegypti and with Ixodes ricinus (setting [5]) were roughly 70% and 0%, respectively. Moreover, the pest or weed control at 0.0016 % in the test on Ixodes ricinus (setting [4]) was 15%. Besides, in the test with Ixodes ricinus (setting [6]), the pest or weed control at 1 % came to 100%.
With `OCC1Cc2ccccc2C1` [2,3-dihydro-1H-inden-2-ylmethanol], the figures for the “number of mosquitoes landed” value in the test on Aedes aegypti (0.0016% in ethanol (Table 6)) and in the test on Aedes aegypti (0.04% in ethanol (Table 6)) were 32 and 1, respectively. Also, the pest or weed control at 0.04 % with Ixodes ricinus (setting [1]) came to 29%. In addition, in the test with Ixodes ricinus (setting [2]), the pest or weed control at 0.2 % stood at 100%. Also, the pest or weed control at 1 % in the test with Ixodes ricinus (setting [3]) was 92%. For the same molecule, in the test on Ixodes ricinus, the “concentration at which the level of 85% of ticks affected is reached” value amounted to 0.2%.
Regarding `N#CC1Cc2ccccc2C1` [2,3-dihydro-1H-indene-2-carbonitrile], the “number of mosquitoes landed” value with Aedes aegypti (0.0016% in ethanol (Table 6)) was 59; in the test with Aedes aegypti (0.04% in ethanol (Table 6)), 13. In the test on Ixodes ricinus (setting [1]), the pest or weed control at 0.04 % amounted to 29%. Further, in the test on Ixodes ricinus (setting [2]), the pest or weed control at 0.2 % came to 71%. In addition, the pest or weed control at 1 % with Ixodes ricinus (setting [3]) was found to be 100%.
Take `COCC1(C)Cc2ccc(C)cc2C1` (stereo not shown) [(2,5-dimethyl-2,3-dihydro-1H-inden-2-yl)methyl methyl ether]: in the test on Aedes aegypti (1% in ethanol (FIG. 9)), the “decrease of the number of landing” value was 86%. Also, the results for the pest or weed control at 0.0016 % in the test with Aedes aegypti and in the test on Ixodes ricinus (setting [4]) were 4 to 29% and 0%, respectively. Also, the pest or weed control at 0.04 % in the test on Ixodes ricinus (setting [5]) came out at 17%. For the same molecule, the pest or weed control at 1 % with Ixodes ricinus (setting [6]) came out at 79%.
On to `Cc1ccc2c(c1)CC(C)(COC=O)C2` (stereo not shown) [(2,5-dimethyl-2-indanyl)methyl formate], for which the pest or weed control at 0.0016 % in the test with Aedes aegypti is 4 to 29%; in the test with Ixodes ricinus (setting [4]) it was 0%. Further, the pest or weed control at 0.04 % with Ixodes ricinus (setting [5]) came out at 7%. Further, in the test on Ixodes ricinus (setting [6]), the pest or weed control at 1 % is 85%.
With `CC1(CO)Cc2ccccc2C1` [(2-methyl-1,3-dihydroinden-2-yl)methanol], the “number of mosquitoes landed” value was determined as 65 in the test with Aedes aegypti (0.0016% in ethanol (Table 6)), 16 in the test on Aedes aegypti (0.04% in ethanol (Table 6)) and 1 in the test with Aedes aegypti (1% in ethanol (Table 6)). The pest or weed control at 0.0016 % in the test with Ixodes ricinus (setting [4]) was 0%. For the same molecule, in the test with Ixodes ricinus (setting [5]), the pest or weed control at 0.04 % was 14%. Besides, the pest or weed control at 1 % with Ixodes ricinus (setting [6]) stood at 92%.

(Values after patent publication US20260068882A1, “ARTHROPOD CONTROLLING COMPOSITION” (Firmenich SA, priority 2019, published 2026).)
